Data as given in patent US20170231922A1, “3, 5-DIHYDROXY-4-ISOPROPYLSTILBENE (DHIS) AS MITICIDAL AGENT AND ITS THERAPEUTIC USES” (Horizon GenoMed Therapeutics, Inc, priority 2016, published 2017).

Experiments:
[1] = tested on: demodex mites; assay: Topical DHIS cream in volunteers with papulopustular acne vulgaris (FIG. 2); format: in vivo, human; details: acne patients, DHIS 0.75% cream twice daily
Procedure: (§1) A total of 20 volunteers (10 with papulopustular rosacea, 10 with papulopustular acne vulgaris) were recruited for this observation.
(§2) For each volunteer, the duration of the condition, the baseline sign and symptoms of their facial conditions and the severity of their condition were recorded. For the signs of the condition, papules and pustules were counted as total number for each individual. Erythema was rated as severe (3, deep red to purple), moderate (2, red), mild (1, pink), or none (0, normal color). For burning and pruritus, visual analogue scale (10 cm line) was used, with the score recorded from 0 (no symptoms) to 10 cm (most severe). In addition, the baseline demodex mite density of the perinasal skin was measured using the modified pressure-scraping technique. For the purpose of this study, both D. folliculorum and D. bravis were counted together. Then each volunteer used DHIS topical cream at 0.75% concentration, twice daily to the affected areas on the face. They were seen again at 4 weeks, when the clinical signs and symptoms were recorded. Further the demodex mite density was assessed again using the modified pressure/scraping technique.
(§3) Individuals with papulopustular rosacea (FIG. 1, N=10) and acne (FIG. 2, N=10) received DHIS 0.75% cream twice daily for 4 weeks. The demodex mite density (mite/cm^2) and clinical signs/symptoms are assessed at the baseline and again at 4 weeks. Papules and pustules are counted or the entire facial area for each individual. Erythema was graded as mild (1, pink), moderate (2, red), or severe (3, purple-red), whereas itchiness and burning sensation were graded according to a 10 cm visual analogue scale. * denotes p<0.05 (t-test)

[2] = tested on: demodex mites; assay: Case study, rosacea patient; format: in vivo, human; details: Case 1, person with rosacea, DHIS 0.75% cream BID for 4 weeks
Source text: Case 1 involved a person with rosacea for 11 years. They had facial erythema and papules and pustules, with mild telangiectasia. There was burning sensation. This was associated with mild rhinophyma. There was foreign body sensation in the eyes. They had received tetracycline and sulfonamide based creams with no obvious improvement. At base line, there was more than usual number of demodex mites. They received DHIS 0.75% cream treatment BID for 4 weeks. […] See photos of the rosacea patient prior to treatment (FIG. 3A) and after 4 weeks of treatment (FIG. 3B).

[3] = tested on: demodex mites; assay: Topical DHIS cream in volunteers with papulopustular rosacea (FIG. 1); format: in vivo, human; details: DHIS 0.75% cream twice daily
Procedure: as §1, §2, §3

[4] = tested on: demodex mites; assay: Case study, acne patient; format: in vivo, human; details: Case 2, person with acne, DHIS 0.75% cream BID, 4 weeks
Source text: Case 2 involved a person with more than 3 years of acnes symptoms. They had open comedons as well as closed comedons. There were papules and pustules but only mild erythema. They had received topical retinoic acid therapy with no improvement. In addition, they received benzoyl peroxide/antibiotic combination topical therapy, oral birth control pills, oral tetracycline, as well as oral Traditional Chinese Medicine concoction, all without satisfactory effects. They had increased demodex mite count at base line. […] Their facial acne papules and pustules resolved at the end of 4 weeks. See photos of the acne patient (cheeks and forehead) prior to treatment (FIGS. 4A and 5A) and after 4 weeks of treatment (FIGS. 4B and 5B).

[5] = tested on: D. bravis; assay: In vitro miticidal assay, survival of isolated human demodex mites under microscopy; details: for Number mites dead: 30 mites per slide
Procedure: (§4) DHIS has potent miticidal activities. As described herein, an in vitro miticidal assay was performed to determine the miticidal activities of DHIS by using human demodex mites prepared with pressure scraping method, following by microscopic examination of the survival time of demodex under microscopy, using the method described in Chinese Journal of Parasitology and Parasitic Diseases 2011; 29:258-263.
(§5) In vitro miticidal assay was performed using human demodex mites prepared with pressure scraping method, following by microscopic examination of the survival time of demodex under microscopy, using the method described in Chinese Journal of Parasitology and Parasitic Diseases (Supra).
(§6) […] The slides were incubated at room temperature (20° C.) and under 70% humidity. The slides were examined under microscopy every 60 minutes for 8 hours after treatment. At each time point, the percentage of dead mites (no movements for 1 minute) was recorded for each treatment concentration.

[6] = tested on: D. folliculorum; assay: as above; details: for Number mites dead / (%) mites dead: D. folliculorum; for Number mites dead: 30 mites per slide
Procedure: as §4, §5, §6

Structure (SMILES): CC(C)c1c(O)cc(/C=C/c2ccccc2)cc1O [DHIS, 3,5-Dihydroxy-4-isopropyl-trans-stilbene]
- erythema ([1]; 4 weeks): reduced erythema was also statistically significant
- itchiness and burning sensation ([1]; 4 weeks): reduced
- lesional counts for papules and pustules ([1]; 4 weeks): dramatic reduction
- demodex mite density ([1]; 4 weeks compared with baseline): significant reduction
- demodex mite density [2]: markedly decreased
- rosacea signs and symptoms [2]: dramatically improved
- erythema ([3]; 4 weeks): reduced erythema was also statistically significant
- itchiness and burning sensation ([3]; 4 weeks): reduced
- lesional counts for papules and pustules ([3]; 4 weeks): dramatic reduction
- demodex mite density ([3]; 4 weeks compared with baseline): significant reduction
- facial acne papules and pustules [4]: resolved
- facial demodex mite density [4]: significantly decreased
- Number mites dead ([5]; DHIS 1 μM, 0 hr): 0
- (%) mites dead ([5]; DHIS 1 μM, 1 hr): (6.7) %
- Number mites dead ([5]; DHIS 1 μM, 1 hr): 2
- (%) mites dead ([5]; DHIS 1 μM, 2 hr): (13) %
- Number mites dead ([5]; DHIS 1 μM, 2 hr): 4
- (%) mites dead ([5]; DHIS 1 μM, 3 hr): (23) %
- Number mites dead ([5]; DHIS 1 μM, 3 hr): 7
- (%) mites dead ([5]; DHIS 1 μM, 4 hr): (33) %
- Number mites dead ([5]; DHIS 1 μM, 4 hr): 10
- Number mites dead ([5]; DHIS 10 μM, 0 hr): 0
- (%) mites dead ([5]; DHIS 10 μM, 1 hr): (20) %
- Number mites dead ([5]; DHIS 10 μM, 1 hr): 6
- (%) mites dead ([5]; DHIS 10 μM, 2 hr): (37) %
- Number mites dead ([5]; DHIS 10 μM, 2 hr): 11
- (%) mites dead ([5]; DHIS 10 μM, 3 hr): (47) %
- Number mites dead ([5]; DHIS 10 μM, 3 hr): 14
- (%) mites dead ([5]; DHIS 10 μM, 4 hr): (63) %
- Number mites dead ([5]; DHIS 10 μM, 4 hr): 19
- Number mites dead ([5]; DHIS 100 μM, 0 hr): 0
- (%) mites dead ([5]; DHIS 100 μM, 1 hr): (40) %
- Number mites dead ([5]; DHIS 100 μM, 1 hr): 12
- (%) mites dead ([5]; DHIS 100 μM, 2 hr): (63) %
- Number mites dead ([5]; DHIS 100 μM, 2 hr): 19
- (%) mites dead ([5]; DHIS 100 μM, 3 hr): (80) %
- Number mites dead ([5]; DHIS 100 μM, 3 hr): 24
- (%) mites dead ([5]; DHIS 100 μM, 4 hr): (87) %
- Number mites dead ([5]; DHIS 100 μM, 4 hr): 26
- Number mites dead ([5]; DHIS 1.0 mM, 0 hr): 0
- (%) mites dead ([5]; DHIS 1.0 mM, 1 hr): (47) %
- Number mites dead ([5]; DHIS 1.0 mM, 1 hr): 14
- (%) mites dead ([5]; DHIS 1.0 mM, 2 hr): (60) %
- Number mites dead ([5]; DHIS 1.0 mM, 2 hr): 18
- (%) mites dead ([5]; DHIS 1.0 mM, 3 hr): (87) %
- Number mites dead ([5]; DHIS 1.0 mM, 3 hr): 26
- (%) mites dead ([5]; DHIS 1.0 mM, 4 hr): (87) %
- Number mites dead ([5]; DHIS 1.0 mM, 4 hr): 26
- Number mites dead ([6]; DHIS 1 μM, 0 hr): 0
- (%) mites dead ([6]; DHIS 1 μM, 1 hr): (10) %
- Number mites dead ([6]; DHIS 1 μM, 1 hr): 3
- (%) mites dead ([6]; DHIS 1 μM, 2 hr): (17) %
- Number mites dead ([6]; DHIS 1 μM, 2 hr): 5
- (%) mites dead ([6]; DHIS 1 μM, 3 hr): (28) %
- Number mites dead ([6]; DHIS 1 μM, 3 hr): 8.6
- (%) mites dead ([6]; DHIS 1 μM, 4 hr): (43) %
- Number mites dead ([6]; DHIS 1 μM, 4 hr): 13
- Number mites dead ([6]; DHIS 10 μM, 0 hr): 0
- (%) mites dead ([6]; DHIS 10 μM, 1 hr): (23) %
- Number mites dead ([6]; DHIS 10 μM, 1 hr): 7
- (%) mites dead ([6]; DHIS 10 μM, 2 hr): (41) %
- Number mites dead ([6]; DHIS 10 μM, 2 hr): 12.3
- (%) mites dead ([6]; DHIS 10 μM, 3 hr): (47) %
- Number mites dead ([6]; DHIS 10 μM, 3 hr): 14
- (%) mites dead ([6]; DHIS 10 μM, 4 hr): (73) %
- Number mites dead ([6]; DHIS 10 μM, 4 hr): 22
- Number mites dead ([6]; DHIS 100 μM, 0 hr): 0
- (%) mites dead ([6]; DHIS 100 μM, 1 hr): (33) %
- Number mites dead ([6]; DHIS 100 μM, 1 hr): 10
- (%) mites dead ([6]; DHIS 100 μM, 2 hr): (72) %
- Number mites dead ([6]; DHIS 100 μM, 2 hr): 21.7
- (%) mites dead ([6]; DHIS 100 μM, 3 hr): (87) %
- Number mites dead ([6]; DHIS 100 μM, 3 hr): 26
- (%) mites dead ([6]; DHIS 100 μM, 4 hr): (92) %
- Number mites dead ([6]; DHIS 100 μM, 4 hr): 27.7
- Number mites dead ([6]; DHIS 1.0 mM, 0 hr): 0
- (%) mites dead ([6]; DHIS 1.0 mM, 1 hr): (43) %
- Number mites dead ([6]; DHIS 1.0 mM, 1 hr): 13
- (%) mites dead ([6]; DHIS 1.0 mM, 2 hr): (80) %
- Number mites dead ([6]; DHIS 1.0 mM, 2 hr): 24
- (%) mites dead ([6]; DHIS 1.0 mM, 3 hr): (93) %
- Number mites dead ([6]; DHIS 1.0 mM, 3 hr): 28
- (%) mites dead ([6]; DHIS 1.0 mM, 4 hr): (97) %
- Number mites dead ([6]; DHIS 1.0 mM, 4 hr): 29
- miticidal activity in vitro ([6]; human demodex mites, Example 1): dose-dependent miticidal activity
